Source: patent US10913712B2, “Tetracycline compounds” (Tetraphase Pharmaceuticals, Inc., priority 2012, dated 2021)
Values after ≈ are worked out from the molar mass of the structure shown. Where two headings read alike, the source gives them in different places.

Key:
[1] = system: PA 884 35151; test: MIC assay; type: cell-based; conditions: read-out: MIC PA 884 35151
[2] = system: Klebsiella pneumoniae KP109 (ATCC 13883); test: MIC assay; type: cell-based
[3] = system: PA 689; test: MIC assay; type: cell-based; conditions: read-out: MIC PA 689
[4] = system: Klebsiella pneumoniae KP153 (tet(A), MDR, ESBL+); test: microbe, parasite or virus in culture; conditions: read-out: MIC KP153 tetA
[5] = system: Klebsiella pneumoniae KP153 (tet(A), MDR, ESBL+)
[6] = system: Klebsiella pneumoniae KP457 (2009 ESBL+, CTX-M, OXA)
[7] = system: Staphylococcus aureus SA161 (HA-MRSA, tet(M)); test: MIC assay; type: cell-based
[8] = system: Streptococcus pneumoniae SP160 (tet(M)); test: MIC assay; type: cell-based
[9] = system: Escherichia coli EC107 (ATCC 25922); test: MIC assay; type: cell-based; conditions: ATCC25922, read-out: MIC EC 107 25922, control compounds
[10] = system: Enterococcus faecium EF404 (blood isolate, tet(M)); test: MIC assay; type: cell-based; conditions: read-out: MIC EF 404 tetM, control compounds

For `CN(C)c1ccc(O)c2c1C[C@H]1C[C@H]3[C@H](N(C)C)C(O)=C(C(N)=O)C(=O)[C@@]3(O)C(O)=C1C2=O` [Minocycline, minocycline], the MIC ([1]; Table 6, control compounds) was 1 µg/mL (≈ 2.19 µM), the MIC ([2]; ATCC13883, Table 4, control compounds, read-out: MIC KP109 13883) was 1 µg/mL (≈ 2.19 µM) and the MIC ([3]; Table 6, control compounds) was 8 µg/mL (≈ 17.5 µM). The MIC [4] was 8 µg/mL (≈ 17.5 µM), the “MIC KP 153 tetA” value [5] was 8 µg/mL (≈ 17.5 µM) and the “MIC KP 457 CTX-M-15” value [6] was 8 µg/mL (≈ 17.5 µM). The “MIC SA 161 tetM” value ([7]; control compounds) was 8 µg/mL (≈ 17.5 µM).
`CN(C)[C@@H]1C(O)=C(C(N)=O)C(=O)[C@@]2(O)C(O)=C3C(=O)c4c(O)cccc4C[C@H]3C[C@@H]12` [Sancycline, sancycline] gave an MIC [1] of 4 µg/mL (≈ 9.65 µM), an MIC [3] of 16 µg/mL (≈ 38.6 µM) and an MIC [4] of 32 µg/mL (≈ 77.2 µM). For the same molecule, the “MIC KP 153 tetA” value ([5]; Table 5, control compounds) was 32 µg/mL (≈ 77.2 µM) and the “MIC KP 457 CTX-M-15” value [6] was 8 µg/mL (≈ 19.3 µM).
Molecule `CN(C)c1cc(NC(=O)CNC(C)(C)C)c(O)c2c1C[C@H]1C[C@H]3[C@H](N(C)C)C(O)=C(C(N)=O)C(=O)[C@@]3(O)C(O)=C1C2=O` [Tigecycline, tigecycline] has an MIC [1] of 0.063 µg/mL (≈ 0.108 µM), an MIC ([2]; ATCC13883, read-out: MIC KP109 13883) of 0.125 µg/mL (≈ 0.213 µM) and an MIC ([8]; read-out: MIC SP 160 tetM, Table 5, control compounds) of 0.2 µg/mL (≈ 0.341 µM). For the same molecule, the MIC ([8]; read-out: MIC SP 160 tetM, control compounds) was 0.03 µg/mL (≈ 0.0512 µM), the MIC [3] was 1 µg/mL (≈ 1.71 µM) and the “MIC KP 153 tetA” value ([5]; Table 5, control compounds) was 1 µg/mL (≈ 1.71 µM). For the same molecule, the “MIC KP 457 CTX-M-15” value ([6]; Table 6, control compounds) was 1 µg/mL (≈ 1.71 µM), the “MIC KP 457 CTX-M-15” value ([6]; Table 7, control compounds) was 1 µg/mL (≈ 1.71 µM) and the MIC ([7]; Staphylococcus aureus, MRSA, read-out: MIC SA 161 tetM, control compounds) was 0.1 µg/mL (≈ 0.171 µM). For the same molecule, the MIC [9] was 0.02 µg/mL (≈ 0.0341 µM) and the MIC [10] was 0.06 µg/mL (≈ 0.102 µM).
